In publication PMC7759686, “Pharmacokinetics and Immunological Effects of Romidepsin in Rhesus Macaques” (Frontiers in Immunology, 2020):

Legend:
PBMCs = assay: In vitro RMD impact on cell surface markers of PBMCs; type: cell-based, rhesus macaques; settings: for CD3 expression (% of cells) on PBMCs: n = 3
Experimental: (§1) To assess the RMD impact on the expression of cellular and homing markers, fresh PBMCs collected from 3 SIV-naïve RMs were subjected to either no RMD treatment or escalating doses of RMD (2, 10, and 20 ng/ml). The PBMCs were incubated with RMD in RPMI1640 supplemented with 1% Penicillin/Streptomycin, 1% HEPES buffer, 1% L-glutamine, and 5% heat-inactivated bovine calf serum for 0, 1, 2, or 5 days. PBMCs were then stained with CD3-V500, CD4-Alexa Flour 700 (L200), CD8-PE-CF594, CCR4-PE-Cy7 (1G1), CCR5-APC (3AP), CCR7-PE (3D12), CCR9-FITC (112509) (R&D Systems, Minneapolis, MN, USA), β7-PE-Cy5 (FIB504), and LIVE/DEAD Fixable Blue Dead Cell Stain Kit (Thermo Fisher Scientific); all antibodies were from BD Biosciences unless otherwise noted. Stained PBMCs were acquired on a LSR-II and data were analyzed with FlowJo software (TreeStar).

[1] = system: CD4+ and CD8+ T cells of PBMCs; assay: In vitro RMD impact on homing markers of PBMCs; type: cell-based, rhesus macaques; settings: for CCR5 expression on CD8+ T cells: untreated 7%; for CCR4 expression on CD8+ T cells: baseline 6%, untreated 29%; for α4β7 expression on CD8+ T cells: baseline 7%; for CCR9 expression on CD4+ T cells: baseline 2%; for CCR9 expression on CD4+ T cells / CCR9 expression on CD8+ T cells: untreated 3%
Experimental: as §1

CD3+ T cells in tissues = assay: CD3+ T cell frequency in intestine and LNs by immunofluorescence; type: in vivo, rhesus macaques (Macaca mulatta); settings: for CD3+ T cells in superficial LNs, area fraction: average, pretreatment 30%, 7 mg/m^2
Experimental: CD3^+ T cell frequency in the intestine and LNs was assessed through immunofluorescence (IF), as described ([55]). Fixed, paraffin-embedded tissues from the three RMs were cut and placed onto microscope slides. The slides were treated three times with xylene (Thermo Fisher Scientific), run through an ethanol battery, washed with dH2O, and placed into 1× PBS (Thermo Fisher Scientific). Slides were microwaved with Antigen Unmasking Solution (Vector Labs, Burlingame, CA) for antigen retrieval. Once slides had cooled, they were washed three times in 1× PBS and the tissues were circled with Immedge Pen (Vector Labs) to create a hydrophobic barrier. Dako Serum-Free Protein Block (Agilent, Santa Clara, CA) was added to the tissues. The Dako Protein Block was dumped off and the slides incubated with mouse α-CD3 (Agilent). The primary antibody was dumped off and slides washed in 1× PBS as previously noted. The remaining steps were completed in the dark. The slides were incubated with the secondary antibody, goat α-mouse (Alexa Fluor 488) (Invitrogen) followed by a subsequent 1× PBS wash. The slides were incubated with DAPI (Millipore Sigma, Burlington, MA), and then dumped off and washed with 1× PBS, followed by dH2O, and dried. Coverslips were then mounted to the slides with fluorescent mounting media (Agilent). Slides were visualized and imaged with Zeiss Imager M1 microscope and Axiovision software [V4.8.2.0 (Carl Zeiss AG, Oberkochen, Germany)]. Image quantifications were performed using the FIJI distribution ([56]) of ImageJ 1.52c ([57]), where positive fluorescent signals were isolated by setting color thresholds and the percent positive area was calculated.

[2] = penetration into CSF; cited from earlier work
Experimental: The brain is also a key HIV reservoir ([71]–[73]). […] At 2 h postinfusion, the plasma concentration was 19.9 ng/ml (37.6nM). Assuming a 2% penetration, this would h ...

HIV = settings: cited from earlier work
Source text: Because we measured the prodrug form of RMD, it is possible that the maintained concentrations are due to either greater distribution to the tissue compartments, reduced conversion of the RMD to the active, reduced form, trapping of RMD between the extracellular and interstitial spaces, or a combination of these. As ...

[3] = human, in vivo; cited from earlier work

C/C=C1\NC(=O)[C@H]2CSSCC/C=C/[C@H](CC(=O)N[C@H](C(C)C)C(=O)N2)OC(=O)[C@H](C(C)C)NC1=O [RMD, romidepsin]
CD3 expression (% of cells) on PBMCs (PBMCs; 2 ng/ml RMD, day 2, baseline 50%, no RMD 66%): 48%
CD3 expression (% of cells) on PBMCs (PBMCs; 2 ng/ml RMD, day 5, baseline 50%, no RMD 61%): 20%
CD3 expression (% of cells) on PBMCs (PBMCs; 10 ng/ml RMD, day 2, baseline 50%, no RMD 66%): 30%
CD3 expression (% of cells) on PBMCs (PBMCs; 10 ng/ml RMD, day 5, baseline 50%, no RMD 61%): 16%
CD3 expression (% of cells) on PBMCs (PBMCs; 20 ng/ml RMD, day 2, baseline 50%, no RMD 66%): 32%
CD3 expression (% of cells) on PBMCs (PBMCs; 20 ng/ml RMD, day 5, baseline 50%, no RMD 61%): 19%
CD3 expression (% of cells) on PBMCs (PBMCs; day 1, all dosage treatments (2, 10, 20 ng/ml)): minimal changes
proportions of CD4− CD8− CD3+ T cells (PBMCs; with increasing dosages of RMD (2, 10, 20 ng/ml), p < 0.05): increased proportions
CCR5 expression on CD4+ T cells ([1]; 2 ng/ml RMD, day 5, baseline 3%, untreated 2%, p > 0.05): 1%
CCR5 expression on CD8+ T cells ([1]; 2 ng/ml RMD, day 5, baseline 4%, p > 0.05): 59%
CCR4 expression on CD8+ T cells ([1]; 2 ng/ml RMD, day 5, p > 0.05): 73%
α4β7 expression on CD8+ T cells ([1]; 2 ng/ml RMD, day 5, p > 0.05): 59%
CCR7 expression on CD8+ T cells ([1]; 10 ng/ml RMD, day 1 (peak), baseline 3%): 6%
α4β7 expression on CD4+ T cells ([1]; 10 ng/ml RMD, day 1, baseline 8%): 9%
α4β7 expression on CD4+ T cells ([1]; 10 ng/ml RMD, day 2, baseline 8%): 16%
CCR9 expression on CD4+ T cells ([1]; 10 ng/ml RMD, day 5 (peak), p > 0.05): 14%
CCR5 expression on CD4+ T cells ([1]; 10 ng/ml RMD, day 5, baseline 3%, untreated 2%, p > 0.05): < 1%
CCR9 expression on CD8+ T cells ([1]; 10 ng/ml RMD, day 5, baseline 4%, p > 0.05): 8%
CCR5 expression on CD8+ T cells ([1]; 10 ng/ml RMD, day 5, baseline 4%, p < 0.05): 93%
CCR4 expression on CD8+ T cells ([1]; 10 ng/ml RMD, day 5, p < 0.05): 93%
α4β7 expression on CD8+ T cells ([1]; 10 ng/ml RMD, day 5, p < 0.05): 95%
α4β7 expression on CD4+ T cells ([1]; 10 ng/ml RMD, day 5, untreated 7.5%): 2%
CCR7 expression on CD8+ T cells ([1]; 20 ng/ml RMD, day 1 (peak), baseline 3%): 6.2%
α4β7 expression on CD4+ T cells ([1]; 20 ng/ml RMD, day 1, baseline 8%): 10%
α4β7 expression on CD4+ T cells ([1]; 20 ng/ml RMD, day 2, baseline 8%): 15%
CCR9 expression on CD4+ T cells ([1]; 20 ng/ml RMD, day 5 (peak), p > 0.05): 13%
CCR7 expression on CD4+ T cells ([1]; 20 ng/ml RMD, day 5 (peak), baseline 4%, untreated 2%, p > 0.05): 9%
CCR5 expression on CD4+ T cells ([1]; 20 ng/ml RMD, day 5, baseline 3%, untreated 2%, p > 0.05): < 1%
CCR9 expression on CD8+ T cells ([1]; 20 ng/ml RMD, day 5, baseline 4%, p > 0.05): 10%
CCR5 expression on CD8+ T cells ([1]; 20 ng/ml RMD, day 5, baseline 4%, p < 0.05): 90%
CCR4 expression on CD8+ T cells ([1]; 20 ng/ml RMD, day 5, p < 0.05): 90%
α4β7 expression on CD8+ T cells ([1]; 20 ng/ml RMD, day 5, p < 0.05): 91%
CCR7 expression on CD8+ T cells ([1]; 20 ng/ml RMD, day 5, untreated 2%): 5%
α4β7 expression on CD4+ T cells ([1]; 20 ng/ml RMD, day 5, untreated 7.5%): 3%
CCR4 expression on CD4+ T cells ([1]; 2, 10, 20 ng/ml RMD, up to day 5): mostly unchanged
CD3+ T cells in superficial LNs, area fraction (CD3+ T cells in tissues; 6 h postinfusion): 40%
CD3+ T cells in intestine, area fraction (CD3+ T cells in tissues; 1 day postinfusion, three RMs, pretreatment 5.8%, not significant): 7.6%
CD3+ T cells in superficial LNs, area fraction (CD3+ T cells in tissues; 7 days postinfusion): 41%
CD3+ T cells in mesenteric LNs, area fraction (CD3+ T cells in tissues; animal RM71, 1 day postinfusion, pretreatment 31%): 43%
CD3+ T cells in mesenteric LNs, area fraction (CD3+ T cells in tissues; animals RM32 and RM33, 1 day postinfusion vs pretreatment, p > 0.05): virtually unchanged
AUC of CSF/plasma [2]: 2%
concentration found to readily reactivate HIV in vitro (HIV): 5 nM
terminal elimination half-life in clinical studies [3]: 6.6 to 19 h
terminal elimination half-life reported in humans [3]: ~ 3.5 h
